Where “and” joins values, the source holds several entries; their conditions need not be identical. Equal entries are not always repeated. Where two headings read alike, the source gives them in different places.
Assays:
recombinant human Icmt = target: T1, recombinant human Icmt (Homo sapiens, UniProt O60725); test: Icmt assay: [3H]methyl incorporation into BFC, Sf9 membranes containing recombinant human Icmt; format: biochemical; conditions: for Km: substrate of recombinant human Icmt, in vitro methylation assay, read-out: Km (apparent) as substrate
T1 construct: a recombinant baculovirus containing the entire open reading frame of the human Icmt cDNA; made in house; host or cells: Sf9 insect cells (baculovirus); membrane fraction used
From the text: Streptavidin-sepharose beads were purchased from Amersham, trans, trans-farnesyl bromide, biotin N-hydroxysuccinimide ester and S-(5'-adenosyl)-L-methionine p-toluenesulfonate were purchased from Sigma-Aldrich, L-cysteine was purchased from Novabiochem, [^3H-methyl]-S-adenosyl-L-methionine was purchased from Perkin Elmer Life Sciences, farnesylthioacetic acid (FTA) was purchased from Biomol, S-(5'-adenosyl)-L-homocysteine was purchased from Fluka. The N-acetyl-S-farnesylcysteine methyl ester (AFCME) and N-acetyl-S-farnesylcysteine methyl amide (AFCMA) were synthesized as previously described ([24-26]). Recombinant human Icmt was prepared by infection of Sf9 cells with a recombinant baculovirus containing the entire open reading frame of the human Icmt cDNA as described. The membrane fraction of the infected Sf9 cells, isolated as described for studies with the Rce1 protease, was used as the source of Icmt for all studies described.
The assay developed for Icmt activity involved quantitation of [^3H]methyl incorporation into the small molecule substrate BFC. For the standard assay, reactions were initiated by addition of Sf9 membranes containing Icmt (0.5 μg protein) to an assay mixture containing BFC (4 μM) and [^3H]AdoMet (5 μM, 1.3 Ci/mmol) in100 mM Hepes, pH 7.4 and 5 mM MgCl2 in a total volume of 45 μl. Reactions were carried out for 20 min at 37°C, whereupon they were terminated by addition of 5 μl of 10% Tween 20. Following termination, streptavidin beads (10 μl of packed beads suspended in 500 μl of 20 mM NaH2PO4, pH 7.4, contaning 150 mM NaCl) were added, and the mixtures mixed by gentle agitation overnight at 4°C. The beads were harvested by centrifugation in a tabletop microcentrifuge at 10,000 rpm for 5 min and washed 3 times with 500 μl of 20 mM NaH2PO4, pH 7.4, containing 150 mM NaCl. The beads were then suspended in 100 μl of the same buffer, transferred to scintillation vials, and radioactivity determined. For the kinetic analyses, the concentrations of substrates (AdoMet, BFC) or additional ligands (eg. AdoHcy, AFCME, etc) were varied as detailed in the legends to the appropriate figures.

[1] = system: methyltransferase activity in rod outer segments; conditions: cited from earlier work; for Ki: previous study, rod outer segments
[2] = varied AdoMet, fixed BFC 4 μM, read-out: Ki with respect to AdoMet
[3] = varied BFC, fixed AdoMet 5 μM, read-out: Ki with respect to BFC

T1 sequence (O60725 whole entry): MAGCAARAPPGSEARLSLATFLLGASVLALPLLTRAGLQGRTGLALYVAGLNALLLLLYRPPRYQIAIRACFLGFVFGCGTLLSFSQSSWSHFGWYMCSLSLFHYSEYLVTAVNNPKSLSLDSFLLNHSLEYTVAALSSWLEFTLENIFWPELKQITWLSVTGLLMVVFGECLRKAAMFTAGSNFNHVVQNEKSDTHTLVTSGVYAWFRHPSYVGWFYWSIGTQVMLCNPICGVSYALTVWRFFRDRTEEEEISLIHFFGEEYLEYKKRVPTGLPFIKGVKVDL

CC(=O)N[C@@H](CSCC=C(C)CCC=C(C)CCC=C(C)C)C(=O)O [AFC, N-acetyl-L-farnesylcysteine]
apparent Km relative to Km of BFC (recombinant human Icmt; AFC Km (ref 20, 31) versus BFC Km 2.1 μM): 10 fold | Km ([1]; read-out: apparent Km as substrate): 20 µM

CNC(=O)[C@H](CSCC=C(C)CCC=C(C)CCC=C(C)C)NC(C)=O [AFCMA, N-acetyl-S-farnesyl-L-cysteine methyl amide]
product inhibition results compared with AFCME (recombinant human Icmt; second prenylcysteine-type product analog, data not shown): essentially identical results

COC(=O)[C@H](CSCC=C(C)CCC=C(C)CCC=C(C)C)NC(C)=O [AFCME, N-acetyl-S-farnesyl-L-cysteine methylester]
type of inhibition with respect to AdoMet (recombinant human Icmt; varied AdoMet, fixed BFC 4 μM): Mixed-type | Ki (recombinant human Icmt; [2]): 2400 nM and 2430 nM | type of inhibition with respect to BFC (recombinant human Icmt; varied BFC, fixed AdoMet 5 μM): Noncompetitive | Ki (recombinant human Icmt; [3]): 1900 nM and 1910 nM | Ki ([1]; compared with the value with respect to BFC, read-out: inhibition constant with respect to prenylcysteine substrate): 41000 nM | Ki ([1]; read-out: inhibition constant with respect to AdoMet): 73000 nM

Nc1ncnc2c1ncn2[C@@H]1O[C@H](CSCC[C@H](N)C(=O)O)[C@@H](O)[C@H]1O [AdoHcy, S-adenosyl-L-homocysteine]
type of inhibition with respect to AdoMet (recombinant human Icmt; varied AdoMet, fixed BFC 4 μM): Competitive | Ki (recombinant human Icmt; [2]): 3500 nM and 3540 nM | type of inhibition with respect to BFC (recombinant human Icmt; varied BFC, fixed AdoMet 5 μM): Competitive | Ki (recombinant human Icmt; [3]): 3600 nM and 3590 nM

C[S+](CC[C@H](N)C(=O)[O-])C[C@H]1O[C@@H](n2cnc3c(N)ncnc32)[C@H](O)[C@@H]1O (stereo partly drawn) [AdoMet, S-adenosyl-L-methionine]
Km (recombinant human Icmt): 7.8 µM

CC(C)=CCC/C(C)=C/CC/C(C)=C/CSC[C@H](NC(=O)CCCCC1SCC2NC(=O)NC21)C(=O)O (stereo partly drawn) [BFC, biotin-S-farnesyl-L-cysteine]
Km (recombinant human Icmt): 2.1 µM

CC(C)=CCC/C(C)=C/CC/C(C)=C/CSCC(=O)O [FTA, S-farnesylthioacetic acid]
type of inhibition with respect to AdoMet (recombinant human Icmt; varied AdoMet, fixed BFC 4 μM): Uncompetitive | type of inhibition with respect to BFC (recombinant human Icmt; varied BFC, fixed AdoMet 5 μM): Competitive | Ki (recombinant human Icmt; [3]): 1200 nM and 1170 nM

— PMC545952, “Analysis of the kinetic mechanism of recombinant human isoprenylcysteine carboxylmethyltransferase (Icmt)” (BMC Biochemistry, 2004)
